Several values for one entry are separate records, joined by “and”; a condition that tells them apart may be missing. Equal values may be shown once.
Assays:
[1] = Pharmacokinetics in mice, serum and liver concentrations; details: for liver conc / serum conc: mouse, 3 mg/kg p.o., individual animals
Description: The mice were separated into four groups of 32 mice per group. […] At time point t = 0, animals received a single dose of the compounds orally. […] Four hours after drug administration, the animals received standard chow. […] After solubilization in extraction buffer, the solutions were shaken for 1 min and then centrifuged for 4 min (4000 x g).

MRP3 = MRP3 (Homo sapiens, UniProt O15438); test: Vesicular transport inhibition assay, MRP3; details: for Accumulation (counts per minute; CPM) with AMP / Accumulation (counts per minute; CPM) with ATP: MRP3;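 note: membrane vesicles with radiolabelled probe substrate and 2 mM glutathione, 4 mM ATP versus AMP background control, vesicle-trapped substrate quantified by liquid scintillation counting after filtration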;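 for Accumulation (counts per minute; CPM) with AMP: ATP 4 mM vs AMP background separates transporter uptake from diffusion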;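 for Accumulation (counts per minute; CPM) with ATP: ATP 4 mM vs AMP background separates transporter uptake from diffusion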
Chain of MRP3 (O15438 whole entry, the tested form may be a part): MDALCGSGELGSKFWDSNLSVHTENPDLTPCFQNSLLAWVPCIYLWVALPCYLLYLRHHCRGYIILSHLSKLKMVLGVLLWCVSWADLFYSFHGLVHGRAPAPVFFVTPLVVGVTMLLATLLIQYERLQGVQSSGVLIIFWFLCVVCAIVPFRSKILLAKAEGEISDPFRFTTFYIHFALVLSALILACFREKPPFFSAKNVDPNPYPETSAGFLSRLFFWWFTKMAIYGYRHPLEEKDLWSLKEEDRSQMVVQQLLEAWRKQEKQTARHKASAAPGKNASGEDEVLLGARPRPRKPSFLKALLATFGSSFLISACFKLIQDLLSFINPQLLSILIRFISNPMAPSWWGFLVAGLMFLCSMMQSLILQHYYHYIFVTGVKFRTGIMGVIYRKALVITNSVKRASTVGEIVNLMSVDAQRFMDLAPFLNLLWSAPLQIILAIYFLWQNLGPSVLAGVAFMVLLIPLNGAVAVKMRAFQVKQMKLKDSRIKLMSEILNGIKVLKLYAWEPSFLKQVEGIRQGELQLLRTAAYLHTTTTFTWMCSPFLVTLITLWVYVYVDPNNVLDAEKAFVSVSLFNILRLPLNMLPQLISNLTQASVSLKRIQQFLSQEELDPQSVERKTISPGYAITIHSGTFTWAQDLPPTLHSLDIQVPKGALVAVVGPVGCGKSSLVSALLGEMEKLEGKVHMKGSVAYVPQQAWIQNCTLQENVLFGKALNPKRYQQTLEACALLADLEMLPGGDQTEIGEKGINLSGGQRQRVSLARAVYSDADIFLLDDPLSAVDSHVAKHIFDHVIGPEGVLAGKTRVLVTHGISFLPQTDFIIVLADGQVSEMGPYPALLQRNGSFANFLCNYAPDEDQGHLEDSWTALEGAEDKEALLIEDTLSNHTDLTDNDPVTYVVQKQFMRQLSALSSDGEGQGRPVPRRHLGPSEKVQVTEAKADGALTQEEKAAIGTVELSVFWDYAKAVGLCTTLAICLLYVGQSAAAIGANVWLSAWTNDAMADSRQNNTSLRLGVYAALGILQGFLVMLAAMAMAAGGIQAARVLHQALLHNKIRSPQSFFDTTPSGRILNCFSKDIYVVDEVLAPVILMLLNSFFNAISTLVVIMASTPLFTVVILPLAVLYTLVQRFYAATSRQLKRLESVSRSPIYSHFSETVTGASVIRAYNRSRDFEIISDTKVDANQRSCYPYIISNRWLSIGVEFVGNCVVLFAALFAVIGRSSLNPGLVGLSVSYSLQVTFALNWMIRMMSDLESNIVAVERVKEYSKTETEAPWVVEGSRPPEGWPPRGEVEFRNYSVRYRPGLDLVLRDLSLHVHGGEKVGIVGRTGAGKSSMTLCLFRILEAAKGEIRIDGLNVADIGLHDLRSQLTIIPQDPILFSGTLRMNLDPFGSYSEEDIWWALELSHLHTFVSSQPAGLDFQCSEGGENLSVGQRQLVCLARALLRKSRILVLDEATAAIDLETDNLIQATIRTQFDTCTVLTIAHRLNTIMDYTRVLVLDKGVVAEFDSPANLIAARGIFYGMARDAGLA
Description: (§2) In the vesicular transport inhibition assay (for BSEP, MRP) compounds were incubated with membrane vesicle preparations and the probe substrate. Incubations were carried out in the presence of 4 mM ATP or AMP to distinguish between transporter-mediated uptake and passive diffusion into the vesicles. For MRP2 and MRP3, reactions were carried out in the presence of 2 mM glutathione. Compounds were added to the reaction mixture in 0.75 μL of solvent (1% of the final incubation volume). […] Reactions were initiated by the addition of 25 μL of 12 mM MgATP (or 12 mM AMP in assay buffer as a background control) and preincubated separately. Reactions were quenched by the addition of 200 μL of ice-cold washing buffer and immediate filtration via glass fiber filters mounted on a 96-well plate (filter plate). The filters were washed (5 × 200 μL of ice-cold washing buffer), dried, and the amount of substrate inside the filtered vesicles was determined by liquid scintillation counting.

BSEP = BSEP (Homo sapiens, UniProt O95342); test: Vesicular transport inhibition assay, BSEP
Chain of BSEP (O95342 whole entry): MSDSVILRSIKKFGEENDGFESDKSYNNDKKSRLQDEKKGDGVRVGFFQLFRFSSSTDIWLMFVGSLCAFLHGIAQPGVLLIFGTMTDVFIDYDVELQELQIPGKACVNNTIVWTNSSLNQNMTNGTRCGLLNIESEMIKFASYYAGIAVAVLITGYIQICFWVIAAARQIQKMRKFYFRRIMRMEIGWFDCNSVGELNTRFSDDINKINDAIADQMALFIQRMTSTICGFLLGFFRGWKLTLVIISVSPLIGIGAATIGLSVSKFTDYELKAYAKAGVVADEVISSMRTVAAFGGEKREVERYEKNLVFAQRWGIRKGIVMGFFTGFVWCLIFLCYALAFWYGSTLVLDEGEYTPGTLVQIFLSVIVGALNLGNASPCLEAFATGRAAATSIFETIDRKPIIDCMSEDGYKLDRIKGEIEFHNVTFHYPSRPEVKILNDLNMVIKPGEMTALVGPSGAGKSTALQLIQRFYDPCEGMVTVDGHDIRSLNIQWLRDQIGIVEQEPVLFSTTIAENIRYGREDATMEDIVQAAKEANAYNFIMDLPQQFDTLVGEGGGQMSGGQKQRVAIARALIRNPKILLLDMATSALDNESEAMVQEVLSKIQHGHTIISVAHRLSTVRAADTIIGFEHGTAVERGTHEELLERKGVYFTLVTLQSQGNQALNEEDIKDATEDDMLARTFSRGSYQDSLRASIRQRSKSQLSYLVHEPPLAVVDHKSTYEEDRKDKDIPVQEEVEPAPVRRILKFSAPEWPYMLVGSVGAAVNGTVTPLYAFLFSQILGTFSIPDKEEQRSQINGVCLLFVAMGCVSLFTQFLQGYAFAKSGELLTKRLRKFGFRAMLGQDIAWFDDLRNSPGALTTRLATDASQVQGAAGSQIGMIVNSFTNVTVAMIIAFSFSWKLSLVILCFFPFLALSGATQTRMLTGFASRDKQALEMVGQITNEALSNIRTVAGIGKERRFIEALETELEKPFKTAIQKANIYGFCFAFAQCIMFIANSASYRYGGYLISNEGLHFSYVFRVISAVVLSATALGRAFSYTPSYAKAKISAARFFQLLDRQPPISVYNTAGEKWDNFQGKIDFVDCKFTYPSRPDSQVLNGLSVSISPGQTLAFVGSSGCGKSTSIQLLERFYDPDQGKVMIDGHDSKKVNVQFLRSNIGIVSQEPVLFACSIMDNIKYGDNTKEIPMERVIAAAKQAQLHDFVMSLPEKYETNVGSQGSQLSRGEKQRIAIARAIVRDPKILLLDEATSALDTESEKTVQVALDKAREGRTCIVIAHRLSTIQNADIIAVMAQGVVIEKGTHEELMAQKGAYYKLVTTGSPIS
Description: as §2

[2] = Stability in microsomes, mouse; assay type: in vitro ADME; details: for average DEG [%]: mouse microsomes, with cofactors
Description: (§1) The final incubation volume was 500 μL. Two control compounds (verapamil and donepezil) were included for each microsomal species, along with the appropriate vehicle control. The reactions were terminated by transferring 50 μL of incubate to 100 μL methanol containing an internal standard (metoprolol) at appropriate time points (0, 10, 20, 40, 60, and 120 min for the test compound and 0, 5, 10, 20, 40, and 60 min for the control compounds). The termination plates were centrifuged at 4000 x g at 4°C for 30 min to precipitate the protein. The supernatants were then collected for analysis, and LC-MS/MS was used for detection purposes. The system consisted of an Acquity™ Binary Solvent Manager, Acquity™ 4-position heated column manager, 2777 Ultra High Pressure Autosampler, and a Xevo-TQ MS triple quadrupole mass spectrometer (Waters Ltd., Herts, UK). This process was carried out twice.

[3] = Stability in microsomes, dog; assay type: in vitro ADME; details: for average DEG [%]: dog microsomes, with cofactors
Description: as §1

OAT1 = target: T1, OAT1 (Homo sapiens, UniProt Q4U2R8); test: Uptake transporter inhibition assay, OAT1; details: for Accumulation (counts per minute; CPM) HEK293FT-MOCK / Accumulation (counts per minute; CPM) HEK293FT-OAT1: OAT1;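 note: HEK293FT cells expressing OAT1 or mock, uptake of radiolabeled probe substrate at 37 °C in HBSS pH 7.4 with test compound or solvent, cell lysate read by liquid scintillation counting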
T1 sequence (Q4U2R8 1-563): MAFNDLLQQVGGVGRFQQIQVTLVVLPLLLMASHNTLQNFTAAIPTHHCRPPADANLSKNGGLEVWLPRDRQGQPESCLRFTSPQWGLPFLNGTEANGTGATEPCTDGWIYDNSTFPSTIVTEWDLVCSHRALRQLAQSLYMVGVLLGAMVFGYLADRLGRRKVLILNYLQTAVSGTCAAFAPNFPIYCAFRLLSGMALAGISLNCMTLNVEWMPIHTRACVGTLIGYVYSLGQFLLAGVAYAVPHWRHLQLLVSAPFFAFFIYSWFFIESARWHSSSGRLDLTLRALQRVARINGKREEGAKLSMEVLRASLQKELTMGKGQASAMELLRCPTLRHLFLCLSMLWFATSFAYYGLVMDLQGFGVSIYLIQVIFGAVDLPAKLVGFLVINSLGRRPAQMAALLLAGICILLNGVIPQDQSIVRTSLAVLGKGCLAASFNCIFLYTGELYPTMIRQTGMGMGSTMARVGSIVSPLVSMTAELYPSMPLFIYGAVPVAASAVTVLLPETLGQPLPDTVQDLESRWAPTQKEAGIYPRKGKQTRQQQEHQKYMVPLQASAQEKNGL
Description: For the uptake transporter inhibition assay, cells were washed twice with 100 μL of the appropriate buffer (HK, pH 7.4) for OATP1B1, followed by HBSS (pH 7.4) for (NTCP, OAT1, OAT2v1, OATP1A2, and OATP1B3). Uptake experiments were carried out at 37 ± 1°C in 50 μL of the respective buffer containing the probe substrate and the compound or solvent. […] After the experiment, cells were washed twice with 100 μL of cold appropriate buffer and lysed with 50 μL of 0.1 M NaOH. Radiolabeled probe substrate transport was determined by measuring an aliquot (35 μL) from each well for liquid scintillation counting.

NTCP = target: T2, NTCP (Homo sapiens, UniProt Q14973); test: Uptake transporter inhibition assay, NTCP; assay type: cell-based; details: for Accumulation (counts per minute; CPM) HEK293-NTCP / Accumulation (counts per minute; CPM) HEK293FT-MOCK: NTCP
T2 construct: expressed in transfected cells; host or cells: HEK cells
T2 sequence (Q14973 1-349): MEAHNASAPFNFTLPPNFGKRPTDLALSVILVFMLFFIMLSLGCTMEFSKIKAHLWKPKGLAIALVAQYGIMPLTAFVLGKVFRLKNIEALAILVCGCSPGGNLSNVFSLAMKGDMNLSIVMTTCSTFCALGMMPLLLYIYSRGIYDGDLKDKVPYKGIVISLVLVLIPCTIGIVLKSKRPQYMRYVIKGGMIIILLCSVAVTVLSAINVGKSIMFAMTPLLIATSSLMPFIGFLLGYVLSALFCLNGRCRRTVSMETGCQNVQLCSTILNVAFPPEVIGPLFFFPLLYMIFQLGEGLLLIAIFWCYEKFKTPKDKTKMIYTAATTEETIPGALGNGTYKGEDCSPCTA
Description: For the uptake transporter inhibition assay, cells were washed twice with 100 μL of the appropriate buffer (HK, pH 7.4) for OATP1B1, followed by HBSS (pH 7.4) for (NTCP, OAT1, OAT2v1, OATP1A2, and OATP1B3). Uptake experiments were carried out at 37 ± 1°C in 50 μL of the respective buffer containing the probe substrate and the compound or solvent.

[4] = Mouse (CD) microsomes, mean n = 2
[5] = Dog (Beagle) microsomes, mean n = 2

Cc1cc(OCCCS(C)(=O)=O)cc(C)c1-c1cccc(COc2ccc3c(c2)OC[C@H]3CC(=O)O)c1 [TAK-875, fasiglifam, reference compound]
distribution between liver and serum ([1]; mice, single oral dose 3 mg/kg, 15 min to 24 h): tended to penetrate the liver more than serum | liver conc ([1]; 0.5 h, 3 mg/kg): 12066 and 9386 and 11708 and 12618 | serum conc ([1]; 0.5 h, 3 mg/kg): 993.3 and 360.8 and 908.6 and 651.9 | liver conc ([1]; 1 h, 3 mg/kg): 10596 and 9326 and 7020 and 7420 | serum conc ([1]; 1 h, 3 mg/kg): 1072.6 and 672.7 and 566 and 819 | liver conc ([1]; 2 h, 3 mg/kg): 6580 and 5322 and 5300 and 4227.4 | liver conc ([1]; 4 h, 3 mg/kg): 3742.6 and 2509.2 and 2176.6 and 3530.4 | liver conc ([1]; 7 h, 3 mg/kg): 1827.82 and 413.84 and 1236.2 and 1172.8 | serum conc ([1]; 7 h, 3 mg/kg): 0 and 11.2 and 32.3 and 10 | liver conc ([1]; 12 h, 3 mg/kg): 594.8 and 321.278 and 55.624 and 442.92 | serum conc ([1]; 12 h, 3 mg/kg): 12 and 0 (2×) and 18.6 | serum conc ([1]; 24 h): 0 | liver conc ([1]; 24 h, 3 mg/kg): 449.28 and 67.18 and 37.77 and 209.86 | IC50 (MRP3): 31.8 µM | Accumulation (counts per minute; CPM) with AMP (MRP3; conc 0.07 µM): 151 CPM and 146 CPM | Accumulation (counts per minute; CPM) with ATP (MRP3; conc 0.07 µM): 3266 CPM and 3317 CPM | Accumulation (counts per minute; CPM) with AMP (MRP3; conc 0.21 µM): 149 CPM and 132 CPM | Accumulation (counts per minute; CPM) with ATP (MRP3; conc 0.21 µM): 3233 CPM and 3776 CPM | Accumulation (counts per minute; CPM) with AMP (MRP3; conc 0.62 µM): 197 CPM and 169 CPM | Accumulation (counts per minute; CPM) with ATP (MRP3; conc 0.62 µM): 3398 CPM and 3538 CPM | Accumulation (counts per minute; CPM) with AMP (MRP3; conc 16.67 µM): 238 CPM and 245 CPM | Accumulation (counts per minute; CPM) with ATP (MRP3; conc 16.67 µM): 2701 CPM and 2568 CPM | Accumulation (counts per minute; CPM) with AMP (MRP3; conc 50.00 µM): 232 CPM and 210 CPM | Accumulation (counts per minute; CPM) with ATP (MRP3; conc 50.00 µM): 1204 CPM and 1302 CPM | Accumulation (counts per minute; CPM) HEK293-BSEP (BSEP; conc 0.41 µM): 11727 CPM and 12245 CPM and 11981 CPM | Accumulation (counts per minute; CPM) HEK293-MOCK (BSEP; conc 0.41 µM): 463 CPM and 375 CPM and 363 CPM | Accumulation (counts per minute; CPM) HEK293-BSEP (BSEP; conc 1.23 µM): 11757 CPM and 12666 CPM and 12491 CPM | Accumulation (counts per minute; CPM) HEK293-MOCK (BSEP; conc 1.23 µM): 465 CPM and 378 CPM and 379 CPM | Accumulation (counts per minute; CPM) HEK293-BSEP (BSEP; conc 3.70 µM): 11540 CPM and 12190 CPM and 12485 CPM | Accumulation (counts per minute; CPM) HEK293-MOCK (BSEP; conc 3.70 µM): 406 CPM and 443 CPM and 391 CPM | Accumulation (counts per minute; CPM) HEK293-BSEP (BSEP; conc 11.11 µM): 11930 CPM and 12790 CPM and 12439 CPM | Accumulation (counts per minute; CPM) HEK293-MOCK (BSEP; conc 11.11 µM): 450 CPM and 398 CPM and 437 CPM | Accumulation (counts per minute; CPM) HEK293-BSEP (BSEP; conc 33.33 µM): 10294 CPM and 11069 CPM and 10674 CPM | Accumulation (counts per minute; CPM) HEK293-MOCK (BSEP; conc 33.33 µM): 418 CPM and 356 CPM and 425 CPM | Accumulation (counts per minute; CPM) HEK293-BSEP (BSEP; conc 100 µM): 6186 CPM and 6483 CPM and 6458 CPM | Accumulation (counts per minute; CPM) HEK293-MOCK (BSEP; conc 100 µM): 375 CPM and 361 CPM and 372 CPM | half-life at 3 μM [2, 4]: 5.72 h | microsomal CLint at 3 μM [2, 4]: 4 µL/min/mg | average DEG [%] ([2]; 0 min): 100.0% | average DEG [%] ([2]; 20 min): 83.6% | average DEG [%] ([2]; 40 min): 92.9% | average DEG [%] ([2]; 60 min): 79.0% | half-life at 3 μM [3, 5]: 1.87 h | microsomal CLint at 3 μM [3, 5]: 12.4 µL/min/mg | average DEG [%] ([3]; 0 min): 100.0% | average DEG [%] ([3]; 20 min): 82.2% | average DEG [%] ([3]; 40 min): 77.1% | average DEG [%] ([3]; 60 min): 67.7% | IC50 (OAT1): 34.8 µM | Accumulation (counts per minute; CPM) HEK293FT-MOCK (OAT1; conc 0.10 µM): 34 CPM and 47 CPM | Accumulation (counts per minute; CPM) HEK293FT-OAT1 (OAT1; conc 0.10 µM): 3883 CPM and 3843 CPM | Accumulation (counts per minute; CPM) HEK293FT-MOCK (OAT1; conc 0.30 µM): 36 CPM and 29 CPM | Accumulation (counts per minute; CPM) HEK293FT-OAT1 (OAT1; conc 0.30 µM): 3654 CPM and 3608 CPM | Accumulation (counts per minute; CPM) HEK293FT-MOCK (OAT1; conc 1.00 µM): 32 CPM and 37 CPM | Accumulation (counts per minute; CPM) HEK293FT-OAT1 (OAT1; conc 1.00 µM): 3568 CPM and 3527 CPM | Accumulation (counts per minute; CPM) HEK293FT-MOCK (OAT1; conc 3.00 µM): 36 CPM and 37 CPM | Accumulation (counts per minute; CPM) HEK293FT-OAT1 (OAT1; conc 3.00 µM): 3226 CPM and 3417 CPM | Accumulation (counts per minute; CPM) HEK293FT-MOCK (OAT1; conc 10.00 µM): 34 CPM and 39 CPM | Accumulation (counts per minute; CPM) HEK293FT-OAT1 (OAT1; conc 10.00 µM): 3074 CPM and 3122 CPM | Accumulation (counts per minute; CPM) HEK293FT-MOCK (OAT1; conc 30.00 µM): 36 CPM and 39 CPM | Accumulation (counts per minute; CPM) HEK293FT-OAT1 (OAT1; conc 30.00 µM): 1739 CPM and 1807 CPM | Accumulation (counts per minute; CPM) HEK293FT-MOCK (OAT1; conc 100.00 µM): 33 CPM and 31 CPM | Accumulation (counts per minute; CPM) HEK293FT-OAT1 (OAT1; conc 100.00 µM): 496 CPM and 493 CPM | Accumulation (counts per minute; CPM) HEK293-NTCP (NTCP; conc 0.10 µM): 4946 CPM and 5522 CPM | Accumulation (counts per minute; CPM) HEK293FT-MOCK (NTCP; conc 0.10 µM): 31 CPM and 28 CPM | Accumulation (counts per minute; CPM) HEK293-NTCP (NTCP; conc 0.30 µM): 4754 CPM and 4976 CPM | Accumulation (counts per minute; CPM) HEK293FT-MOCK (NTCP; conc 0.30 µM): 28 CPM and 36 CPM | Accumulation (counts per minute; CPM) HEK293-NTCP (NTCP; conc 1.00 µM): 4452 CPM and 4849 CPM | Accumulation (counts per minute; CPM) HEK293FT-MOCK (NTCP; conc 1.00 µM): 23 CPM and 31 CPM | Accumulation (counts per minute; CPM) HEK293-NTCP (NTCP; conc 3.00 µM): 4304 CPM and 4641 CPM | Accumulation (counts per minute; CPM) HEK293FT-MOCK (NTCP; conc 3.00 µM): 25 CPM and 22 CPM | Accumulation (counts per minute; CPM) HEK293-NTCP (NTCP; conc 10.00 µM): 3509 CPM and 4053 CPM | Accumulation (counts per minute; CPM) HEK293FT-MOCK (NTCP; conc 10.00 µM): 28 CPM and 26 CPM | Accumulation (counts per minute; CPM) HEK293-NTCP (NTCP; conc 30.00 µM): 2661 CPM and 2656 CPM | Accumulation (counts per minute; CPM) HEK293FT-MOCK (NTCP; conc 30.00 µM): 25 CPM and 30 CPM | Accumulation (counts per minute; CPM) HEK293-NTCP (NTCP; conc 100.00 µM): 1608 CPM and 1569 CPM | Accumulation (counts per minute; CPM) HEK293FT-MOCK (NTCP; conc 100.00 µM): 25 CPM and 33 CPM | IC50 (NTCP; transformed HEK cells, up to 300μM, n = 2): 53.1 µM

Reference: article PMC8459971, “Evaluation of the hepatotoxicity of the novel GPR40 (FFAR1) agonist CPL207280 in the rat and monkey” (PLoS ONE, 2021)
